Measurements published in patent publication US11629175B2, “Method for preparing PHFS-like Tau aggregates” (ECOLE POLYTECHNIQUE FEDERALE DE LAUSANNE (EPFL), priority 2018, dated 2023).
Blank lines part the entries; values can stand above or below the molecule they belong to.

Columns and labels:
monomeric Tau 4R2N [1] = molecular target: T1, monomeric Tau 4R2N (Homo sapiens, UniProt P10636); assay: R2-seeded Tau aggregation with commercially available inhibitors, ThS fluorescence and EM; type: biochemical; conditions: Tau 4R2N 5 μM + R2 seeds 5 μM; inhibitor 1, 10, 100 μM; end timepoint ThS
T1 construct: made in house; host or cells: E. coli (pET-28a(+))
Method: The aggregation kinetic is followed using ThS fluorescence. a. The list and structure of the 5 inhibitors used in this proof of concept assay. b. As an example, the full kinetic of Tau incubated in presence of R2 seed with LMTX at 1 μM (orange), 10 μM (grey) or 100 μM (yellow) or in absence of inhibitor (blue). c. End timepoint ThS value of Tau incubated in presence of R2 with the five selected inhibitors at 1 μM (orange), 10 μM (grey) or 100 μM (yellow) or in absence of inhibitor (blue). The inhibition is dose-dependent, the inhibitors show various inhibition potencies (e.g. low for BSc3094, high for LMTX). […] Corresponding EM micrographs confirm the absence of significant fibrilization in the presence of most inhibitors. The presence of oligomeric species corroborate the hypothesis that Tau is locked in OFF-pathway conformations. The scale bars are 500 [nm].
To do so, R2 seeds were incubated with monomeric Tau protein in presence or absence of a set commercially available know Tau aggregation inhibitors (ATPZ, LMTX, Pyrochatecol violet, BSc3094 and myricetin, FIG. 18 a) at three different conventions (1 μM, 10 μM and 100 μM). The aggregation kinetic was followed using ThS fluorescence. As an example, the full kinetic of Tau incubated in presence of R2 seed, with LMTX at the three different concentration is presented in FIG. 18 b. […]

[2] = tested on: hippocampal rat primary neurons; assay: Immunocytochemistry (ThS) in transfected rat primary hippocampal neurons; type: cell-based; conditions: 1 μM, 3 days
Method: Next, the findings of the present invention were validated using a cellular model, the hippocampal rat primary neurons. Primary neurons were transfected with full length Tau and K18 ΔK280, and cells were treated with R2, R2-seeded Tau or R2-seeded K18 at a concentration of 1 μM, […]. After 3 days, the coverslips were processed for ICC. […] Although the intracellular ThS signal is relatively high, it is difficult to distinguish between uptake of exogenous material and seeding of endogenous and/or overexpressed Tau/K18 ΔK280, especially since the concentration used here is relatively high (1 μM).
Hippocampi from PO WT rat (OFA SD, Charles River) were dissociated and triturated in papain-containing medium. After centrifugation at 400 g for 2 min, neurons were plated in MEM supplemented with 10% fetal calf serum (FCS) on Cultrex™ poly-L-lysine (Trevigen)-coated coverslips at 1.5×10^5 cells/ml (6 well-plates, 3 ml per well). After 4 h, medium was replaced with Neurobasal/B27 medium. Viral infections were performed two weeks, and transfection one week after plating.
One week old hippocampal rat primary neurons seeded on coverslips coated with Cultrex poly-L-lysine were transfected with Tau or K18 ΔK280 ([…]) using lipofectamine 2000 reagent (Invitrogen). 24 h after transfection, cells were treated with 1 μM monomeric R2, R2 seeds, R2-seeded Tau, R2-seeded K18 and further incubated for 1 or 3 days. Cells were then fixed in 100% methanol at −20° C. for 10 min and rinsed three times in PBS. After blocking with 3% BSA in PBST for 30 min at RT, cells were incubated with ThS (Sigma) at 0.1 mg/ml in PBS for 10 min and rinsed 5 times with 80% Ethanol and once with PBS. Coverslips were then incubated with primary antibodies for 2 h at RT (see Table M.1). The cells were rinsed five times with PBST and subsequently incubated with the secondary antibodies at a dilution of 1/800 in PBST and DAPI at 2 μg/ml (Life technologies). The cells were washed five times in PBST, once in PBS and rinsed in MilliQ water before mounting in PVA medium with DABCO (Sigma). The cells were then examined with confocal laser-scanning microscope (LSM 700, Zeiss) and analyzed using Zen software.

tau biosensor cells = assay: Tau biosensor cell assay (FRET flow cytometry, confocal microscopy), seeding capacity; type: cell-based; conditions: for Integrated FRET Density (IFD): FRET flow cytometry, 2 experimental repeats, 3 technical replicates
From the text: Based on Furman and Diamond, 2017. FRET and Flow Cytometry Assays to Measure Proteopathic Seeding Activity in Biological Samples. Caroline Smet-Nocca (ed.), Tau Protein: Methods and Protocols, Methods in Molecular Biology, vol. 1523, DOI 10.1007/978-1-4939-6598-4_23, © Springer Science+Business Media New York 2017).
Methods: FRET flow cytometry Biosensor cell assay (Furman and Diamond, 2017) was used to assess the seeding capacity of fibrillar R2 compared to R2 monomer, and fibrillar rPHF compared to 4R2N monomer
Methods: cells were transduced with transduction buffer, R2 monomer, rPHFs or R2 fibrils following protocol by Furman and Diamond (2017).

monomeric Tau 4R2N [3] = molecular target: T1, monomeric Tau 4R2N; assay: Seeding of monomeric Tau with R2 or R2-derived peptide seeds, EM; type: biochemical; conditions: 37° C.; for seeding of monomeric Tau / formation of rPHFs (EM): 10 μM sonicated peptide fibrils + 10 μM monomeric Tau
Method: The seeding of Tau 4R2N (SEQ ID No: 5) by R2 was performed in presence of 10 μM of sonicated peptide fibrils, added to 10 μM of the monomeric soluble Tau, at 37° C. under stagnant conditions. It was observed that R2 is capable of seeding the aggregation of full length Tau (FIG. 3).
Having determined which of the R2-derived peptides are capable of aggregation and characterized their aggregation kinetics and fibril morphology, it was next investigated whether some of the R2-derived peptides could induce the seeding of Tau and K18, and whether it would lead to the formation of rPHFs fibrils. In order to reach this goal, fibrils of the peptides that were able to aggregate (R2 dC5, dC9, dC10, dC15 K6N and dPHF6*) were sonicated and added to monomeric Tau or K18 at molar ratios of 10 μM: 10 μM (i.e. under the same experimental conditions as those leading to R2-seeding of Tau and K18).
Unless stated otherwise, 100 μM R2 or R2-derived peptide were dissolved in 10 mM phosphate, 50 mM NaF, 0.5 mM DTT and pH-adjusted to 7.4. The solution was then vortexed and the supernatant was incubated in presence of heparin sodium salt at molar ratio 1:4 (heparin:peptide) (Applichem GmbH) at 37° C., either with or without constant orbital agitation (1000 rpm, Peqlab, Thriller).
The obtained seeds were added at a final concentration of 10 μM to 10 μM of monomeric Tau or K18 in 10 mM phosphate, 50 mM NaF, 0.5 mM DTT and incubated 37° C.

[4] = neurons transfected with K18 ΔK280
[5] = neurons transfected with WT Tau 4R2N

T1 sequence (P10636 1-441 isoform P10636-8): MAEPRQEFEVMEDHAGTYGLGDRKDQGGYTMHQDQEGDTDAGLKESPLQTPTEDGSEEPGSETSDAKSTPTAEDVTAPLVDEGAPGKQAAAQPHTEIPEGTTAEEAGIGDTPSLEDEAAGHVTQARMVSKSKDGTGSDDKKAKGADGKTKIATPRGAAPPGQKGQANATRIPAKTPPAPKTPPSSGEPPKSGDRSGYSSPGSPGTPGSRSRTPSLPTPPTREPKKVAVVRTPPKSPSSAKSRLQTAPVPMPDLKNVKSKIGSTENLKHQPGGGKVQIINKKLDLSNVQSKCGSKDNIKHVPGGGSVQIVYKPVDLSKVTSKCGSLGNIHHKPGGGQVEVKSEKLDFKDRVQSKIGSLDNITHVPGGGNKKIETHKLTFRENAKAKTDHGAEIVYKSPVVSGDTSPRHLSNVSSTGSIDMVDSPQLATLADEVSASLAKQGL

inhibition potency (monomeric Tau 4R2N [1]): low
Molecule: O=C(NNc1nc(-c2ccc([N+](=O)[O-])cc2)cs1)c1ccc2nc[nH]c2c1 [BSc3094]

Molecule: R2-seeded K18: K18 (SEQ ID No 6) fibrils formed by seeding with R2 seeds
ThS signal in transfected neurons [2, 4]: strong ThS signal
localisation of ThS signal [2, 4]: intracellular
ThS signal in transfected neurons [2, 5]: strong ThS signal
localisation of ThS signal [2, 5]: intracellular

Molecule: 4R2N monomer: longest adult human Tau isoform, 441 amino acid, SEQ ID No 5, monomeric
Integrated FRET Density (IFD) (tau biosensor cells): 0

Molecule: rPHF fibrils: recombinant PHFs: Tau fibrils formed by seeding monomeric Tau with R2 seeds
Integrated FRET Density (IFD) (tau biosensor cells): increase in the IFD
aggregates in transduced biosensor cells (confocal microscopy) (tau biosensor cells; transduction per Furman and Diamond): bright aggregated puncta
ThS signal in transfected neurons [2, 4]: strong ThS signal
localisation of ThS signal [2, 4]: intracellular
ThS signal in transfected neurons [2, 5]: strong ThS signal
localisation of ThS signal [2, 5]: intracellular

incubation time until PHFs-like fibrils observed by EM (monomeric Tau 4R2N [3]; 10 μM R2 seeds + 10 μM Tau 4R2N, stagnant): less than 4 h
seeding of monomeric Tau / formation of rPHFs (EM) (monomeric Tau 4R2N [3]): allowed the formation of rPHFs
Molecule: R2: Tau repeat peptide R2, SEQ ID No 1

seeding of monomeric Tau / formation of rPHFs (EM) (monomeric Tau 4R2N [3]): allowed the formation of rPHFs
Molecule: R2 extended and mutated to the SGGG motif: R2 PGGG-extended with P301S mutation (SGGG), SEQ ID No 4 (VQIINKKLDLSNVQSKCGSKDNIKHVSGGG; listed as Homo sapiens)

Molecule: CN(C)c1ccc2c(c1)Sc1cc(N(C)C)ccc1N2.CS(=O)(=O)O.CS(=O)(=O)O [LMTX]
inhibition potency (monomeric Tau 4R2N [1]): high
